Tests used:
[1] = Effects on body weight and lean body mass, 4-week administration; assay type: in vivo, cynomolgus monkey
Method: (§1) The monkeys were divided into five groups by weight randomization (MiTOX system ver2.0, Mitsui E & S Systems Research Inc) on the last day of the habituation period. SARM‐2f was orally administered at daily doses of 1, 3, or 10 mg/kg for 4 weeks between 9:00 and 11:00 hours, using 0.5% w/v methylcellulose as the vehicle. TE was injected intramuscularly on Day 0 and Day 13; the dosing start was set at Day 0 at a dose of 2 mg/kg using sesame oil as the vehicle. The route of administration and dose of TE was selected according to the route and dose mentioned in the clinical indications. BW was measured every week before dosing (between 8:30 and 9:00 hours), and LBM was measured every 2 weeks after dosing and before feeding (between 11:30 and 14:30 hours) using an X‐ray bone density measuring device (Discovery, HOLOGIC USA). Blood collection for lipid profiles was conducted on the day after the completion of the four‐week multiple administration of SARM‐2f or TE. Plasma levels of total cholesterol (T‐chol), HDL‐c, low‐density lipoprotein cholesterol (LDL‐c), triglyceride (TG), alanine aminotransferase (ALT), and […] (AST) were measured by an automatic JCA‐BM8 analysis system (JEOL Ltd.). Plasma lipoprotein (a) (Lp (a)) levels were measured using a multiplate absorbance measuring system (Multiscan Ascent, Thermo Fisher Scientific KK).
(§2) In the reporter assays, EC50 was calculated using Graph Pad Prism version 6. The effects of SARM‐2f or TE on BW and LBM were analyzed by t test, with Bonferroni correction for repeated measurements.

[2] = target: T1, cynomolgus monkey AR (Macaca fascicularis, UniProt O97952); assay: AR reporter assay (MMTV-luc) in COS7 cells expressing monkey AR; assay type: cell-based
T1 construct: expressed in transfected cells; host or cells: COS7
T1 sequence (O97952 1-895): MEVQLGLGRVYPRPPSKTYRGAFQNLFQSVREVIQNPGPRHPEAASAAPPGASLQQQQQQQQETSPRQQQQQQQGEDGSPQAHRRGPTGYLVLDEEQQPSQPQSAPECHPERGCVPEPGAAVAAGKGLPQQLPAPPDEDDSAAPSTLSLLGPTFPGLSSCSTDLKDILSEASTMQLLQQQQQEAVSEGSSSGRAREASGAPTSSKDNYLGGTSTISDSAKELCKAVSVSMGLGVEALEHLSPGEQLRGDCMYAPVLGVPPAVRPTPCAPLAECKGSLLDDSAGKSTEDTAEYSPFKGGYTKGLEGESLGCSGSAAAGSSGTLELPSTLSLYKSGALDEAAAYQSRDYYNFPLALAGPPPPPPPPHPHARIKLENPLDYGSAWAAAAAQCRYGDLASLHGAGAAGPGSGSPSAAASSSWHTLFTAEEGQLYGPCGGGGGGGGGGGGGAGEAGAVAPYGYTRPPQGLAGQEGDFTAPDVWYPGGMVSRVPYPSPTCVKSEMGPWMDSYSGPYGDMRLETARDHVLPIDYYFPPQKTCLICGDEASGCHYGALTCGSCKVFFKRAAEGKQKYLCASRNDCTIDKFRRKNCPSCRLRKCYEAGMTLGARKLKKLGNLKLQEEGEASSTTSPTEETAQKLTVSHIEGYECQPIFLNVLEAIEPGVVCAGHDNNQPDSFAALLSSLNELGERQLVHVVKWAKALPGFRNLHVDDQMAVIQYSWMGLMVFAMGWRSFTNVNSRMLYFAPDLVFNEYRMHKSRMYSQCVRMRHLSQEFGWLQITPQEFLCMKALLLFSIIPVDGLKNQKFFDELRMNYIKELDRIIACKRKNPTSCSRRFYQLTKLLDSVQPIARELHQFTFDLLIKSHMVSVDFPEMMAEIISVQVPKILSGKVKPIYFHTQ
Method: Two hours post‐transfection, the cells were plated in 96‐well plates at a density of 2 × 10^4 cells/well, and cultured at 37°C for 3 hours. […] Luciferase activity was measured using the Steady‐Glo Luciferase assay system (Promega) and an Envision Multimode Plate Reader (PerkinElmer).
as §2

[3] = Liver function tests (AST, ALT) after 4-week treatment; assay type: in vivo, cynomolgus monkey; conditions: after 4 wks; SARM‐2f 1, 3, 10 mg/kg daily p.o.; TE 2 mg/kg every 2 wks; vs vehicle
Method: as §1, §2

[4] = Plasma lipid levels after 4-week treatment; assay type: in vivo, cynomolgus monkey; conditions: after 4 wks, SARM‐2f 1, 3, 10 mg/kg daily p.o., vs vehicle
Method: as §1, with “KK). […]” for “KK).”

Compound: CC[C@H]1[C@@H](O)CC(=O)N1c1ccc(C#N)c(C(F)(F)F)c1 [SARM‐2f, 4′‐[(2S,3S)‐2‐Ethyl‐3‐hydroxy‐5‐oxopyrrolidin‐1‐yl]‐2′‐(trifluoromethyl) benzonitrile]
- BW increase from pre‐dosing level ([1]; 1 mg/kg daily p.o., Day 13, male monkeys n = 3): 6.2%
- LBM increase from pre‐dosing level ([1]; 1 mg/kg daily p.o., Day 13, n = 3): 4.3%
- BW increase from pre‐dosing level ([1]; 1 mg/kg daily p.o., Day 27, male monkeys n = 3): 7.7%
- LBM increase from pre‐dosing level ([1]; 1 mg/kg daily p.o., Day 28, n = 3): 6.1%
- BW increase from pre‐dosing level ([1]; 3 mg/kg daily p.o., Day 13, male monkeys n = 3): 6.0%
- LBM increase from pre‐dosing level ([1]; 3 mg/kg daily p.o., Day 13, n = 3): 4.0%
- BW increase from pre‐dosing level ([1]; 3 mg/kg daily p.o., Day 27, male monkeys n = 3): 3.3%
- LBM increase from pre‐dosing level ([1]; 3 mg/kg daily p.o., Day 28, n = 3): 3.1%
- effective dose to increase BW by approximately 10% ([1]; monkeys, daily p.o., 4 weeks): 10 mg/kg
- EC50 ([2]; monkey AR reporter assay (abstract), read-out: EC50): 3 nM
- maximal AR activation ([2]; monkey AR, at 1 μmol/L, 1 μmol/L DHT = 100%): 125%
- Blood level of ALT [3]: not changed
- Blood level of AST [3]: not changed
- Blood level of HDL‐c ([4]; TE 2 mg/kg every 2 wks): only reduced in animals treated with 3 or 10 mg/kg
- Blood level of LDL‐c ([4]; TE 2 mg/kg every 2 wks): lower
- Blood level of TG ([4]; TE 2 mg/kg every 2 wks): lower
- Blood level of T‐chol ([4]; TE 2 mg/kg every 2 wks): lower
- Lp (a) protein level ([4]; TE 2 mg/kg every 2 wks): showed a tendency to be decreased
- HDL‐c/LDL‐c ratio [4]: did not cause any significant change

Reference: publication PMC7005530, “A selective androgen receptor modulator SARM‐2f activates androgen receptor, increases lean body mass, and suppresses blood lipid levels in cynomolgus monkeys” (Pharmacology Research & Perspectives, 2020)
